Results taken from PMC6474902, “Examination of novel 4-aminoquinoline derivatives designed and synthesized by a hybrid pharmacophore approach to enhance their anticancer activities” (Scientific Reports, 2019).
“Also recorded” adds a separate entry of the source.

Tests used:
Assay type in all cases: cell-based, human
[1] = system: Cdk1, Cdc25C, Wee1 in HeLa S3 cells; assay: Western blot of G2-M-G1 regulators after nocodazole release; settings: 10 µM
Procedure: To gain a better understanding about the molecular mechanism of compound 13 on antigrowth/cell-killing, HeLa S3 cells synchronized at G1/S by double thymidine treatment (DT) (Fig. 4b) were released into complete medium for 6 h, at which time most cells are at late S-G2/M phase (Fig. 4c). The cells were then maintained for additional 6 h in the absence (Fig. 4d) or presence of 10 μM compound 13 (Fig. 4e). More than 62% of cells progressed into G1 of the next cell cycle in the sham control (Fig. 4d). […] Since the level of securin is low, cell cycle is likely arrested prior to the chromatin separation stage in the presence of compound 13.
Figure 5 Compound 13-treated cells are arrested at prometa-metaphase through the inactivation of Cdk1. HeLa S3 cells were synchronized at G2/M phase by incubating in 50 ng/ml nocodazole (noco) for 18 h. The cells were then released into complete medium at time 0 h in the absence (Sham) or presence of 10 µM compound 13. Samples were then taken at the indicated times post-nocodazole. […] (b) Cdk1 may be inactivated by the combination of a high level of Wee1 kinase and inactivation of Cdc25C. The relative intensity of band signals are quantified by densitometry and presented the results in Supplementary Fig. S3.
Western blot and densitometry were carried out as we described previously[29],[30].

MCF10A [2] = assay: LysoTracker Red staining of lysosomal volume, non-cancer cells; settings: 5 μM, 48 h
Procedure: Since the structure of compound 13 contains the main scaffold of CQ, we examined whether cells treated with compound 13 also results an increase in the lysosomal volume.
LysoTracker Red sDND-99 staining was carried out as recommended by the manufacturer (Molecular Probes, Eugene, OR). Briefly, cells grown on a cover slip were incubated in 50 nM LysoTracker Red DND-99 in serum-free RPMI-1640 medium for 30 min and then rinsed once with serum-free medium. The cells were washed three times with ice-cold medium, incubated in fresh medium for 45 min at 37 °C, and then washed once with fresh medium. Subsequently, the cells were examined by fluorescence microscopy using two filters (for green and red images) sequentially. Merging the two color images was done using Northern Eclipse software.
Sham treated Compound 13 (5 μ M), 48 h
(VR23) in non- cancer MCF10A, in contrast to cancer cells (MCF7, HeLa). […]

MCF10A [3] = assay: SRB antiproliferative/antigrowth assay, non-cancer cells
Summary of the method: (§1)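 Cells seeded 24 h before exposure to seven concentrations (100 µM to 0.0064 µM) for 48 h at 37 °C. Growth by TCA fixation and SRB staining, absorbance 515–564 nm, relative to time-zero and untreated controls; GI50 from variable-slope sigmoidal fit, reported as greater/less than range limits when not reached.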

184B5 = assay: as above; settings: Homo sapiens, 184B5, 48 h, read-out: GI50 184B5
Summary of the method: as §1

MDA-MB231 = assay: SRB antiproliferative/antigrowth assay; settings: Homo sapiens, MDA-MB-231, 48 h, read-out: GI50 MB231
Summary of the method: as §1

MCF7 cells = assay: Cell killing by flow cytometry, asynchronous cells; settings: 2.7 μM, 48 h
Procedure: Asynchronous MCF7 cells were incubated for 48 h in the absence (Sham control) or presence of compound 13 at 2.7 or 8.0 µM.
Cells (2.0 × 10^6) were harvested by centrifugation at 1,000 rpm on a bench-top centrifuge for 5 min, followed by fixation with ice-cold ethanol (70%) for 30 min to overnight at −20 °C[13]. The ethanol was then removed by centrifugation, and cells were resuspended in 1 × PBS solution, followed by centrifuge. The cell pellet was than stained with propidium iodide (PI) master mix (100 μg/mL RNase A, 100 μg/mL PI, 0.3% Nonidet P-40 and 0.1% sodium citrate in distilled water) for 30 min at 37 °C. DNA content was measured using a Beckmann Coulter Cytomics FC500 (Beckman Coulter, Fullerton, CA), and the proportion of cell populations in G0/G1, S, and G2/M phases of cell cycle was calculated on the basis of DNA distribution histograms using CXP software.

NCI-60 cancer panel = NCI-60 cancer panel screening; settings: screening carried out by the USA National Cancer Institute
Procedure: Therefore, we examined its effects on several cellular and molecular biological aspects to gain a better understanding about its mode of function. […]
compound 13 show s effective grow th inhibition on a w ide range of cancers. Screening of compound 13 with the NCI-60 cancer panel was carried out by the USA National Cancer Institute.
(1 picture or pasted object on this page, not shown here)

## O=[N+]([O-])c1ccc(S(=O)(=O)N2CCN(c3ccnc4cc(Cl)ccc34)CC2)c([N+](=O)[O-])c1 [Compound 13, 7-Chloro-4-(4-(2,4-dinitrophenylsulfonyl)piperazin-1-yl)quinoline]
[1]; 2–3 h post-nocodazole
  Cdc25C phosphatase activity status: almost completely inactive
  phosphorylation of Thr161 and Tyr15 on Cdk1: highly phosphorylated
[1]; 3 h post-nocodazole
  Wee1 activity status: very active
MCF10A [2]
  lysosomal volume: does not increase; also recorded: did not show the same degree of increase in lysosomal volume
MCF10A [3]; Homo sapiens, MCF-10A, 48 h, read-out: GI50 MCF10A
  GI50: 12.3 ± 0.1 µM
MCF10A [3]; MDA-MB468 vs MCF10A
  higher concentration required for the same GI50 against non-cancer than cancer cells: up to 17.6 fold
184B5
  GI50: 9 ± 0.1 µM
MDA-MB231
  GI50: 3.4 ± 0.1 µM
MCF7 cells
  cell killing: effectively killed MCF7 cells
NCI-60 cancer panel
  growth inhibition in NCI-60 cancer panel (in words): effective on many different human cancers
